The subject of series [1] is PD-1. Put plainly: Percent PD-1+/CD8+ T-cells in splenocytes after a single dose, melanoma murine model. It counts as in vivo, mice. As to the method:
The pharmacodynamic (PD) effects of a single IV dose of Compound B in a melanoma murine model were evaluated. B16F10 melanoma cells were grown in RPMI 1640 media supplemented with 10% FBS and antibiotics (penicillin/streptomycin) using T75 flasks. When cells reached 70-80% confluency, they were treated with 3 ml of 0.25% Trypsin/EDTA. Afterward, detached cells were harvested. A single-cell suspension was prepared in PBS. An IV injection of 10^5 cells in mice marked day −3 of the experiment.
Animals were housed four per cage, and had access to food and water ad libitum. Compound B was dissolved in sterile PBS, and pH was adjusted to approximately 7.5. Sterile PBS served as control.
Three days after the IV injection of melanoma cells, animals in the baseline group (n=3) were sacrificed and their spleens were collected for KLRG-1, CTLA-4, and PD-1 analysis. At each predetermined time-point (24, 48, and 120 hours after dosing) three animals from each group were sacrificed for splenocyte analysis of KLRG-1, CTLA-4, and PD-1 expression levels, and expression levels were compared to baseline.
Spleens collected for splenocyte analysis were prepared into a single-cell suspension for cellular phenotyping by flow cytometry. Cells were stained and gated for CD8. Percent KLRG-1+, CTLA-4+, and PD-1+ CD8+ T-cells were evaluated using flow cytometry.
The PD effects of a single IV dose of Compound C were evaluated in a melanoma murine model conducted as described in Example 10. […] This study also evaluated whether Compound C was pharmacodynamically active orally.
In a prior study, Compound C was dosed at 1 mg IV QD for seven days. […] A single PO dose was chosen to confirm oral activity of Compound C. Compound C was dissolved in DMSO, and then diluted in sterile PBS. pH was adjusted to approximately 7.5.
The oral and intravenous PD effects of a single dose of Compound E were evaluated in a melanoma murine model conducted as described in Example 10.
Compound E was dissolved in DMSO, and then diluted in sterile PBS. pH was adjusted to approximately 7.5.

In series [2] the test system is B16F10 melanoma cells. As to the kind of experiment: Tumor growth inhibition and overall survival, SC B16F10 melanoma (Example 13). It counts as in vivo, mice. The note with it: Compound B 4 mg/mouse PO QD x7, Compound C 2.5 mg/mouse IV QD; for animals showing any tumor growth: by day 14; for animals with measurable tumors: by day 16; for tumor volume versus placebo group: duration of the study. As to the method:
This study was designed to evaluate the effects of Compound B and Compound C on tumor growth and the overall survival of animals implanted SC with 10^5 melanoma cells. Furthermore, ex vivo analysis of splenocytes at the end of dosing was used to evaluate change in the T-cell population and function. FIG. 8A is a diagram of the study design.
(§1) Animals were housed four per cage and had access to food and water ad libitum. Compound B was dissolved in sterile PBS, and pH was adjusted to approximately 7.5. Compound C was first dissolved in DMSO before diluting in sterile PBS. Sterile PBS was used as a control. Compound B was dosed at 4 mg/mouse PO QD. This dose was expected to result in an exposure equivalent to a 1 mg/mouse IV dose. Compound C was dosed at 2.5 mg/mouse IV.
(§2) B16F10 melanoma cells were grown in RPMI 1640 media supplemented with 10% FBS and antibiotics (penicillin/streptomycin) using T75 flasks. When cells reached 70-80% confluency, they were treated with 3 ml of 0.25% trypsin/EDTA. Detached cells were harvested. A single-cell suspension was prepared in PBS. A dorsal SC injection of 10^5 cells in mice marked day 0 of the experiment. Animals were monitored daily, and tumors were measured twice a week.
For tumor growth inhibition, animals were divided into 3 groups. The control group received an IV injection of PBS to match the start time, dosing volume, and dosing frequency of the Compound C treatment group. The treatment group received 100 μl of 4 mg/mouse PO QD of Compound B for 7 days starting at day 7 after tumor implantation, or 2.5 mg/mouse IV QD of Compound C. The endpoint was reached when the tumor reached 1 cm^3. Tumor volume was calculated using the following formula:
Tumor volume=length×width×½ width
The mice were also monitored for survival, and were euthanized when the tumor size reached the predefined endpoint of 1 cm^3.

Series [3] is described as follows: Body weight change in murine melanoma model (Example 13). It counts as in vivo, mice. Conditions: Compound B 4 mg/mouse PO QD x7, Compound C 2.5 mg/mouse IV QD. The procedure:
as §1, §2

For series [4], the system named is murine CD8+ T-cells. As to the kind of experiment: Murine CD8+ T-cell proliferation concentration-response (CFSE), Example 7. It counts as cell-based, C57BL/6 mice. Conditions: for CD8+ T-cell proliferation: 0.001-30 mM, absence of PS, low dose ConA; for model estimated EC80, CD8+ T-cell proliferation: in the presence of 0.1 mM PS, log-logistic model; for reversal of suppressive effects of PS on T-cell proliferation: increasing doses, 0.1 mM PS liposomes. The source says:
In this study, the effects of increasing doses of compound B and compound C on proliferation (CFSE staining), activation (Granzyme B and IFN-γ), and checkpoint modulation (PD1 and TIM3) of murine CD8+ T-cells in the presence and absence of phosphatidylserine (PS) were explored.
Preparation of test materials: 30:70 PS:DMPC liposomes were synthesized in PBS. […] Compound C was first dissolved in a small volume of DMSO before diluting to the final desired concentration.
Tissue culture and dosing: Splenocytes of C57BL/6 mice were stained with CFSE and prepared, cultured, and dosed. Cells were seeded at 4×10^5 cells/well.
Controls: Two controls were used. A negative control dosed with 10 ng/ml IL-2 was used, and a positive control dosed with 20 μg/ml ConA and 10 ng/ml IL-2 was used.
Treatment: After ConA stimulation (10 μg/ml), cells were dosed with log 3 dilution of compound B or compound C to cover a range from 1×10^−3 to 30 mM in duplicates with or without 0.1 mM PS:DMPC liposomes. All wells were dosed with 10 ng/ml of IL-2.
Flow cytometer: Flow cytometer analysis was performed to assess cell proliferation by CFSE, activation by double staining for Granzyme B (GzmB) and IFN-γ, checkpoint modulation by double staining for PD-1 and TIM3.
Exposure-response analysis: Change from baseline was calculated for each marker as follows:
Concentration versus change was fitted to an appropriate three-, four- or five-parameter log-logistic model using “dre” package in “R.”
The fold change from baseline of CD8+ T-cells proliferation as a function of increasing doses of compound B was calculated using equation 1, where ResponseControl was the proliferation of cells treated with IL-2 alone and Responsetreatment was the proliferation at each dose of compound B. The baseline PS response was calculated using the same equation where Responsetreatment was the proliferation of cells treated with 0.1 mM PS.

Each structure is given as a SMILES string.

As for `O=C(O)[C@H](O)[C@@H](O)C(=O)OCCCc1ccccc1` [Compound B, (2R,3R)-2,3-dihydroxy-4-oxo-4-(3-phenylpropoxy)butanoic acid], in series [1] (0.14 mg/mouse IV single dose, 24 h), the “PD-1+/CD8+ T-cells, mean” value was determined as 38.6%. The “PD-1+/CD8+ T-cells, mean” value in series [1] (0.14 mg/mouse IV single dose, 48 h) amounted to 32.5%. Besides, the “PD-1+/CD8+ T-cells, mean” value in series [1] (0.14 mg/mouse IV single dose, 120 h) amounted to 59.7%. For the same compound, the “PD-1+/CD8+ T-cells, mean” value in series [1] (0.7 mg/mouse IV single dose, 24 h) came out at 44.5%. In addition, in series [1] (0.7 mg/mouse IV single dose, 48 h), the “PD-1+/CD8+ T-cells, mean” value stood at 26.7%. The “PD-1+/CD8+ T-cells, mean” value in series [1] (0.7 mg/mouse IV single dose, 120 h) is on record as 58.2%. The “reduction in PD-1+/CD8+ T-cell compared to control” value in series [1] (1.2 mg group, day 5) is on record as 41.8%. In addition, the “PD-1+/CD8+ T-cells, mean” value in series [1] (1.4 mg/mouse IV single dose, 24 h) is 42.3%. In addition, the “PD-1+/CD8+ T-cells, mean” value in series [1] (1.4 mg/mouse IV single dose, 48 h) is on record as 30.4%. Moreover, the “PD-1+/CD8+ T-cells, mean” value in series [1] (1.4 mg/mouse IV single dose, 120 h) was found to be 34.7%. In addition, in series [2], the “animals did not survive the study” value is listed as 3/7, the “animals survived tumor-free for the duration of the study” value was 3/7, the “animals survived with a tumor (to day 28)” value is 1/7 and the survival came to 40%. Also, in series [2], the “animals showing any tumor growth” value is reported as 3/7, the “animals with measurable tumors” value stood at 3 and the “tumor volume versus placebo group” value is listed as “statistically lower”. In series [3], the “greatest measured weight loss” value stood at 3%. Also, in series [4], the “CD8+ T-cell proliferation” value was “robust proliferation”; the “model estimated EC80, CD8+ T-cell proliferation” value is 0.139 mM; the “reversal of suppressive effects of PS on T-cell proliferation” value is recorded as “partially reversed”. In addition, the “target concentration considered an effective dose” value in series [4] (based on Example 7 analysis) was found to be 0.1 mM.
With `O=C(O)[C@H](O)[C@@H](O)C(=O)OCCC(c1ccccc1)c1ccccc1` [Compound C, (2R,3R)-4-(3,3-diphenylpropoxy)-2,3-dihydroxy-4-oxobutanoic acid], in series [1] (0.025 mg/mouse IV single dose, 24 h), the “PD-1+/CD8+ T-cells, mean” value stood at 35%. In series [1] (0.1 mg/mouse IV single dose, 24 h), the “PD-1+/CD8+ T-cells, mean” value stood at 34%. In addition, the “PD-1+/CD8+ T-cells, mean” value in series [1] (0.25 mg/mouse IV single dose, 24 h) is on record as 27%. The “PD-1+/CD8+ T-cells, mean” value in series [1] (1 mg/mouse IV single dose, 24 h) worked out at 26%. For the same compound, the “PD-1+/CD8+ T-cells, mean” value in series [1] (2.5 mg/mouse po single dose, 24 h) is 33%. In addition, in series [1] (0.25- and 1-mg IV groups), the “decrease in PD-1+/CD8+ T-cells compared to baseline” value is reported as “approximately 20%” and the “decrease in PD-1+/CD8+ T-cells compared to time match control” value is recorded as “approximately 30%”. Further, in series [1] (remaining groups (0.025, 0.1 mg IV, 2.5 mg PO)), the “change in PD-1+/CD8+ T-cells compared to baseline or control” value is given as “No meaningful changes”. In addition, in series [2], the “animals did not survive the study” value is reported as 2/8, the “animals survived tumor-free for the duration of the study” value was 5/8, the “animals survived with a tumor (to day 28)” value is 1/8 and the survival stood at 80%. Besides, in series [2], the “animals showing any tumor growth” value is listed as 0/8, the “animals with measurable tumors” value was found to be 0 and the “tumor volume versus placebo group” value is “statistically lower”. Moreover, the “greatest measured weight loss” value in series [3] came out at 1.5%. Moreover, the “doses at which proliferation overlapped with that in absence of PS” value in series [4] (0.1 mM PS) is “greater than 0.03 mM”. In series [4], the “CD8+ T-cell proliferation” value is listed as “robust proliferation”; the “model estimated EC80, CD8+ T-cell proliferation” value was 0.0146 mM; the “reversal of suppressive effects of PS on T-cell proliferation” value is reported as “completely reversed”.

The values are drawn from patent publication US20250177340A1, “Tartaric Acid Analogs and Uses Thereof” (Lapix Therapeutics, Inc., priority 2021, published 2025).
